Results taken from article PMC10850208, “Engineering amino acid residues of pentacyclic triterpene synthases for improving the activity” (Applied Microbiology and Biotechnology, 2024).

Assays:
Experiment in all cases: product titer in engineered yeast by UHPLC
Assay type in all cases: cell-based
[1] = biological target: T1, OEW (lupeol synthase from Olea europaea) (Olea europaea, UniProt Q9SLW3); conditions: endogenous substrate of S. cerevisiae, not added; 30 °C, 72 h shake flask
T1 construct: synthesized gene, one copy integrated in the genome of S. cerevisiae SP1, PGK1 promoter; whole-cell production
T1 sequence (Q9SLW3 1-758): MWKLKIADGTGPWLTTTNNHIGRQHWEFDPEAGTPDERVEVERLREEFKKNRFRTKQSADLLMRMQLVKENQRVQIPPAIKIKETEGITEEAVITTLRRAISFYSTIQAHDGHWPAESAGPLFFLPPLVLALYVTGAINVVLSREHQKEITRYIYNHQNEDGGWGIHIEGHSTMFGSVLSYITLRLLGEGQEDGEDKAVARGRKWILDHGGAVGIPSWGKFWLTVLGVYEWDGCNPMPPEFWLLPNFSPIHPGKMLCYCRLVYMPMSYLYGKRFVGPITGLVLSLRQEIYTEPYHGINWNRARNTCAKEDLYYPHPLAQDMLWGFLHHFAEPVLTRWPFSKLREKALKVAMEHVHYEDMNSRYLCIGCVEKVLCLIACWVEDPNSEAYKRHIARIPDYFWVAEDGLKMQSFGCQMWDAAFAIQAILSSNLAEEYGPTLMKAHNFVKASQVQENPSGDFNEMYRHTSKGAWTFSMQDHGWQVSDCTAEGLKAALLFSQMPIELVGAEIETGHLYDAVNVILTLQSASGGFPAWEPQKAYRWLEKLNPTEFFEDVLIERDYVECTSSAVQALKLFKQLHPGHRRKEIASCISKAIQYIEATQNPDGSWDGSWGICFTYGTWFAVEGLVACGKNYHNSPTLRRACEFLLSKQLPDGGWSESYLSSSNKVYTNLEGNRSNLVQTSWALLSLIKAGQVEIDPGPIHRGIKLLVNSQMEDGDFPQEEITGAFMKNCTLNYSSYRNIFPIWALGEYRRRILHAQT

[2] = biological target: T2, MdOSC1 (α-amyrin synthase from Malus × domestica) (Malus domestica, UniProt C7SCX0); conditions: endogenous substrate of S. cerevisiae, not added; 30 °C, 72 h shake flask; mixed product with β-amyrin
T2 construct: gene OSC1; synthesized gene, one copy integrated in the genome of S. cerevisiae SP1, PGK1 promoter; whole-cell production

[3] = biological target: T3, GgbAS (β-amyrin synthase from Glycyrrhiza glabra) (Glycyrrhiza glabra, UniProt Q9MB42); conditions: endogenous substrate of S. cerevisiae, not added; 30 °C, 72 h shake flask
T3 construct: gene bAS1; synthesized gene, one copy integrated in the genome of S. cerevisiae SP1, PGK1 promoter; whole-cell production
T3 sequence (Q9MB42 whole entry): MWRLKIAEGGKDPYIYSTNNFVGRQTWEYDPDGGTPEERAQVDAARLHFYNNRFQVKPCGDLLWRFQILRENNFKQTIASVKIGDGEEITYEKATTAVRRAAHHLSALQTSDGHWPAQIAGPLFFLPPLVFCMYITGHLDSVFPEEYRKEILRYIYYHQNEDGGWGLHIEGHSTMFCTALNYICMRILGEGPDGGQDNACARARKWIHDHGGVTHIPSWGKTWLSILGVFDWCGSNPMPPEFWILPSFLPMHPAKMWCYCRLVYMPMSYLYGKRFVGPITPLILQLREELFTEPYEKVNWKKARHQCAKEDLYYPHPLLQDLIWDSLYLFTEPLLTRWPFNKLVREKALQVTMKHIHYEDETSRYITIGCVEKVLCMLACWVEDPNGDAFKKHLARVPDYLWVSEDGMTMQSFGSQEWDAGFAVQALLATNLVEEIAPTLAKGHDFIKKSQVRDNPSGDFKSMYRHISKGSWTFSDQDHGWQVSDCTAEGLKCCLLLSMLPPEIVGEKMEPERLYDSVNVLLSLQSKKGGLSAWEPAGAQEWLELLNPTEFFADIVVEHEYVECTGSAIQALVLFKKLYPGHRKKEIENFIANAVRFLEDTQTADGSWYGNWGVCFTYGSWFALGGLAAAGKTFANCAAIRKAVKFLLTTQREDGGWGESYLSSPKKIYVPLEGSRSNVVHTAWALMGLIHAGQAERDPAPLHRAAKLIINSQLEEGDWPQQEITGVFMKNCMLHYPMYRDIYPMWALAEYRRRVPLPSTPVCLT

T2 sequence (C7SCX0 entry or part of it): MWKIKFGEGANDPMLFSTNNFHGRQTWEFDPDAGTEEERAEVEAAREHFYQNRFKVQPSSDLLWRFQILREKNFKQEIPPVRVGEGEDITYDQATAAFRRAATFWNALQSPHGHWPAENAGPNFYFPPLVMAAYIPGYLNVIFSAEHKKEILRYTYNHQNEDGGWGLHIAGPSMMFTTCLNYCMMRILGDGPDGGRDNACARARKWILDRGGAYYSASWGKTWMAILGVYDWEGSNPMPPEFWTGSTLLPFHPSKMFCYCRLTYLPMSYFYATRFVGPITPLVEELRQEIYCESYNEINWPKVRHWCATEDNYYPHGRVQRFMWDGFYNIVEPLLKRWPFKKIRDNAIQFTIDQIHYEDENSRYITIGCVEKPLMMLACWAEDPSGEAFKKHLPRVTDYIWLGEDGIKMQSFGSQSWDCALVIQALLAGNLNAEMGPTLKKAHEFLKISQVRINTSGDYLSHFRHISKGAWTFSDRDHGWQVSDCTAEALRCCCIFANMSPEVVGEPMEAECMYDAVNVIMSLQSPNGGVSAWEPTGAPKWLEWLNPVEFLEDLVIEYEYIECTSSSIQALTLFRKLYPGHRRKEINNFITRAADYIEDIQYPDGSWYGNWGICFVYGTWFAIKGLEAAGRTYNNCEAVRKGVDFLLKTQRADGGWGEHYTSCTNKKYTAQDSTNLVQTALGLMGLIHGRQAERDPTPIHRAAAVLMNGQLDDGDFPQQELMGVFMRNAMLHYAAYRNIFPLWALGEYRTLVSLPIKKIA

Structure (SMILES): C=C(C)[C@@H]1CC[C@]2(C)CC[C@]3(C)[C@H](CC[C@@H]4[C@@]5(C)CC[C@H](O)C(C)(C)[C@@H]5CC[C@]43C)[C@@H]12 [lupeol]
- product titer in engineered yeast by UHPLC [1]: increase in the production of lupeol compared with that of the strain SP1 harboring

Structure (SMILES): C[C@H]1[C@H](C)CC[C@]2(C)CC[C@]3(C)C(=CC[C@@H]4[C@@]5(C)CC[C@H](O)C(C)(C)[C@@H]5CC[C@]43C)[C@H]12 [α-amyrin]
- product titer in engineered yeast by UHPLC [2]: increase in the titer of α-amyrin and β-amyrin, compared with these of the strain SP1

Structure (SMILES): CC1(C)CC[C@]2(C)CC[C@]3(C)C(=CC[C@@H]4[C@@]5(C)CC[C@H](O)C(C)(C)[C@@H]5CC[C@]43C)[C@@H]2C1 [β-amyrin]
- product titer in engineered yeast by UHPLC [3]: higher titer and specific titer of β-amyrin than these of strain SP1 harboring the wild-type GgbAS
